# Measurements published in patent publication US20210206773A1, “DRUG FOR TREATING DISORDERS OF CORNEAL EPITHELIUM” (EA PHARMA CO., LTD., priority 2014, published 2021).
# Columns and labels:
# [1] = system: HCE cells (human corneal epithelial cells); experiment: Suppressive effect on cell injury under hyperosmotic conditions (MTT method); type: cell-based; details: 24 hours, hyperosmotic medium with 150 mM NaCl and 160 mM NaCl, or 320 mM glucose, FIG. 1 to FIG. 3
# Experimental: HCE cells (human corneal epithelial cells) were cultured for 24 hours in a hyperosmotic medium containing a compound of Formula (1aa) (hereinafter, Compound (1aa)) (as a hydrate). The medium was adjusted to fulfill the hyperosmotic conditions using 150 mM NaCl and 160 mM NaCl, or 320 mM glucose. The number of live cells was measured by the MTT method, and relative values of light absorbance with respect to the light absorbance of the control (isotonic pressure conditions) were calculated. The value is expressed as average value±S.D. (n=3), **P<0.01.
# [2] = system: HCE cells (human corneal epithelial cells); experiment: Suppressive effect on cell injury caused by ethanol (MTT method); type: cell-based; details: 4 v/v % ethanol, FIG. 4
# Experimental: HCE cells (human corneal epithelial cells) were cultured in a medium containing Compound (1aa) and 4 v/v % ethanol. The number of live cells was measured by the MTT method, and relative values of light absorbance with respect to the light absorbance of the control (absence of ethanol) were calculated. The value is expressed as average value±S.D. (n=3), *P<0.05; and **P<0.01.
# [3] = system: muc1 and muc16 messenger RNAs in HCE cells; experiment: Change in amount of expression of mucin messenger RNA (real time RT-PCR); type: cell-based, human; details: 3 hours and 24 hours, FIG. 8
# Experimental: HCE cells were cultured in a medium containing Compound (1aa). The amounts of expression of muc1 and muc16 messenger RNAs after culturing for 3 hours and 24 hours were measured by a real time RT-PCR method. Relative values of the amount of expression with respect to the amount of expression of actin messenger RNA were calculated, and the results are presented in FIG. 8. The value is expressed as average value±S.D. (triplicate), *P<0.05; and **P<0.01.
# [4] = system: HCE cells; experiment: Suppressive effect on apoptosis under hyperosmotic conditions (caspase-3-like activity, fluorescent peptide substrate); type: cell-based, human; details: 160 mM NaCl, 3 hours and 6 hours, FIG. 5
# Experimental: HCE cells were cultured in a hyperosmotic medium containing Compound (1aa) and 160 mM NaCl. After culturing for 3 hours and 6 hours, caspase-3-like activity, which is a marker for apoptosis, was measured using a fluorescent peptide substrate, and the results are presented in FIG. 5. The value is expressed as average value±S.D. (triplicate), **P<0.01, and the term n.s. means “not significant”.
# [5] = system: dry eye model rat; experiment: Therapeutic effect on corneal surface injury in dry eye model rat (lacrimal glands removed); type: in vivo; details: 5 μL of aqueous solution 0.05 w/v % (1.5 mM) three times a day, 1 to 5 weeks after removal of lacrimal glands
# Experimental: The lacrimal glands of a rat were removed, and a dry eye model was produced. After 1 to 5 weeks from the removal of lacrimal glands, 5 μL of an aqueous solution containing Compound (1aa) (0.05 w/v %, 1.5 mM) was administered to the rat three times a day. The value is expressed as average value±S.E.M., *P<0.05; and **P<0.01.
compound,measurement,setting,value
"O=C1NCC2=C1[C@@H](c1ccccc1)N(C(=O)CO)[C@@H]1CCCC[C@H]1N2 [Compound (1aa), (1R,8R,10R)-9-(2-hydroxyacetyl)-8-phenyl-2,5,9-triazatricyclo[8.4.0.0^3,7]tetradeca-3(7)-en-6-one]","survival rate of corneal epithelial cells under hyperosmotic conditions (number of live cells, relative light absorbance vs control)",[1],noticeably suppressed the decrease in the survival rate of corneal epithelial cells
same,"survival rate of corneal epithelial cells with ethanol (number of live cells, relative light absorbance vs control)",[2],noticeably suppressed the decrease in the survival rate of corneal epithelial cells
same,amount of expression of mucin (muc1 and muc16 messenger RNAs relative to actin messenger RNA),[3],increases the amount of expression of mucin
same,hyperosmotic stress-dependent apoptosis (caspase-3-like activity),[4],noticeably suppressed hyperosmotic stress-dependent apoptosis
same,amount of lacrimal fluid (cotton thread test),[5]; FIG. 6,increasing the amount of lacrimal fluid
same,injury of the corneal surface (fluorescein scores),[5]; FIG. 7,suppressed injury of the corneal surface
